Reference: patent publication US9249127B2 (Orion Corporation, priority 2012, dated 2016)
pEC50: −log10 of the molar value. Where a name gives a salt, the structure may show the parent alone. Read-outs that look alike come from different tables or passages of the source.

Biological target: T1, alpha2A receptor (Homo sapiens, UniProt P08913)
T1 sequence (P08913 1-465): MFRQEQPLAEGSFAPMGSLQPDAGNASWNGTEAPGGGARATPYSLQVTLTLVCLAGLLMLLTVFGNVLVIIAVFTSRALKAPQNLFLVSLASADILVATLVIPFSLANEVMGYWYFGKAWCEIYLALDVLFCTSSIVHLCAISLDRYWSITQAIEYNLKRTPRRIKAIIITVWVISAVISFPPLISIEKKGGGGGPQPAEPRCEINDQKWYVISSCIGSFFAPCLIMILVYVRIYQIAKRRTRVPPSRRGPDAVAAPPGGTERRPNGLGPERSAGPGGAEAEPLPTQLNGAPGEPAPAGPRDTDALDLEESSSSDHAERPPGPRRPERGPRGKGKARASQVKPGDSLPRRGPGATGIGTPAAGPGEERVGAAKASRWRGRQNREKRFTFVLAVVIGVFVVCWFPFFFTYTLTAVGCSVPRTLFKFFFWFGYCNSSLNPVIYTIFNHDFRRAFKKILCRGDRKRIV
Assay: Alpha2A agonistic activity in vitro
Format: cell-based
Details: for EC50: read-out: Alpha2A Agonism pEC50 (converted); for pEC50: Alpha2A Agonism pEC50, in vitro

Row | Compound | Alpha2A Agonism pEC50 (in vitro) | Alpha2A Intrinsic Activity (in vitro) | EC50 (in vitro) | pEC50 | Alpha2A Intrinsic Activity (in vitro, hydrochloride)
1 | 2-(5-methoxy-3-(2,2,2-trifluoroethyl)methyl-isochroman-1-yl)-4,5-dihydro-1H-imidazole [Example 77] | 6.3 | 0.16 | – | – | –
2 | CC1(C2=NCCN2)OCCc2c(C(O)C(C)(C)C)cccc21 (single isomer, unassigned) [Example 13, 1-(1-(4,5-Dihydro-1H-imidazol-2-yl)-1-methylisochroman-5-yl)-2,2-dimethylpropan-1-ol] | – | 0.66 | 1260 nM | – | –
3 | CC1(C2=NCCN2)OCCc2c(C(O)C(C)(C)C)cccc21 (single isomer, unassigned) [Example 14, 1-(1-(4,5-Dihydro-1H-imidazol-2-yl)-1-methylisochroman-5-yl)-2,2-dimethylpropan-1-ol] | – | 0.43 | 3160 nM | – | –
4 | Cc1cccc2c1CCOC2(C)C1=NCCN1 (single isomer, unassigned) [Example 21, 2-(1,5-Dimethylisochroman-1-yl)-4,5-dihydro-1H-imidazole] | – | 0.73 | – | 7.30 | –
5 | Cc1cccc2c1CCOC2(C)C1=NCCN1 (single isomer, unassigned) [Example 22, 2-(1,5-Dimethylisochroman-1-yl)-4,5-dihydro-1H-imidazole] | – | 0.33 | 1000 nM | – | –
6 | FC(F)(F)CC1Cc2c(Br)cccc2C(C2=NCCN2)O1 (single isomer, unassigned) [Example 68] | – | 0.25 | – | – | –
7 | CCc1cccc2c1CCOC2C1=NCCN1 (single isomer, unassigned) [Example 80] | – | 0.58 | 251 nM | – | –
8 | COc1cccc2c1CCOC2C1=NCCN1 (single isomer, unassigned) [Example 82, 2-(5-methoxyisochroman-1-yl)-4,5-dihydro-1H-imidazole] | – | 0.52 | 158 nM | – | –
9 | FC(F)(F)CC1Cc2c(Br)cccc2C(C2=NCCN2)O1 (single isomer, unassigned) [Example 83] | – | 0.41 | 126 nM | – | –
10 | Cc1cccc2c1CC(CC(F)(F)F)OC2C1=NCCN1 (single isomer, unassigned) [Example 86, 2-((3)-5-methyl-3-(2,2,2-trifluoroethyl)isochroman-1-yl)-4,5-dihydro-1H-imidazole] | – | 0.28 | 100 nM | – | –
11 | CCCC1Cc2c(Br)cccc2C(C2=NCCN2)O1 (single isomer, unassigned) [Example 88, 2-((3)-5-bromo-3-propylisochroman-1-yl)-4,5-dihydro-1H-imidazole] | – | 0.50 | – | 7.30 | –
12 | Cc1cccc2c1CC(CC(F)F)OC2C1=NCCN1 (single isomer, unassigned) [Example 89, 2-((3-(2,2-difluoroethyl)-5-methylisochroman-1-yl)-4,5-dihydro-1H-imidazole hydrochloride] | – | – | – | 7.40 | 0.33
13 | Clc1cccc2c1CCOC2C1=NCCN1 (single isomer, unassigned) [Example 92, 2-(5-chloroisochroman-1-yl)-4,5-dihydro-1H-imidazole] | – | 0.78 | – | 7.50 | –
14 | CCC1Cc2c(Br)cccc2C(C2=NCCN2)O1 (single isomer, unassigned) [Example 94, 2-(5-bromo-3-ethylisochroman-1-yl)-4,5-dihydro-1H-imidazole] | – | 0.55 | – | 7.60 | –
15 | CCc1cccc2c1CCOC2C1=NCCN1 (single isomer, unassigned) [Example 96] | – | 0.66 | – | 7.70 | –
16 | COc1cccc2c1CCOC2C1=NCCN1 (single isomer, unassigned) [Example 97, 2-(5-methoxyoisochroman-1-yl)-4,5-dihydro-1H-Imidazole] | – | 0.69 | 15.8 nM | – | –

Row | Compound | Alpha2A Agonism pEC50 (in vitro) | Alpha2A Intrinsic Activity (in vitro) | EC50 (in vitro) | pEC50 | Alpha2A Intrinsic Activity (in vitro, hydrochloride)
17 | Clc1cccc2c1CCOC2C1=NCCN1 (single isomer, unassigned) [Example 100, 2-(5-chloroisochroman-1-yl)-4,5-dihydro-1H-imidazole] | – | 0.91 | – | 8.40 | –
18 | Brc1cccc2c1CCOC2C1=NCCN1 (single isomer, unassigned) [Example 101, 2-(5-bromoisochroman-1-yl)-4,5-dihydro-1H-imidazole] | – | 0.89 | – | 8.50 | –
19 | CC1(C2=NCCN2)OCc2cccc3cccc1c23 (single isomer, unassigned) [Example 103, 2-(1-methyl-1,3-dihydrobenzo[de]isochromen-1-yl)-4,5-dihydro-1H-imidazole] | – | 0.74 | – | 8.20 | –
20 | CC1(C2=NCCN2)OCCc2c(Br)cccc21 (single isomer, unassigned) [Example 106, 2-(5-bromo-1-methylisochroman-1-yl)-4,5-dihydro-1H-imidazole] | – | 0.64 | 158 nM | – | –
21 | Cc1cccc2c1CCOC2C1=NCCN1 (stereo not drawn) [Example 1, 2-(5-Methylisochroman-1-yl)-4,5-dihydro-1H-imidazole] | – | 0.89 | – | 8.40 | –
22 | Brc1cccc2c1CCOC2C1=NCCN1 (stereo not drawn) [Example 2, 2-(5-Bromoisochroman-1-yl)-4,5-dihydro-1H-imidazole] | – | 0.85 | – | 7.80 | –
23 | Cc1cccc2c1CCOC2(C)C1=NCCN1 (stereo not drawn) [Example 3, 2-(1,5-Dimethylisochroman-1-yl)-4,5-dihydro-1H-imidazole] | – | 0.95 | – | 7.20 | –
24 | Clc1cccc2c1CCOC2C1=NCCN1 (stereo not drawn) [Example 4, 2-(5-Chloroisochroman-1-yl)-4,5-dihydro-1H-imidazole] | – | 0.85 | – | 8.10 | –
25 | N#Cc1cccc2c1CCOC2C1=NCCN1 (stereo not drawn) [Example 5, 1-(4,5-Dihydro-1H-imidazol-2-yl)isochroman-5-carbonitrile] | – | 0.59 | 1260 nM | – | –
26 | C=CCc1cccc2c1CCOC2C1=NCCN1 (stereo not drawn) [Example 6, 2-(5-Allylisochroman-1-yl)-4,5-dihydro-1H-imidazole] | – | 0.53 | – | 7.40 | –
27 | C=Cc1cccc2c1CCOC2C1=NCCN1 (stereo not drawn) [Example 7, 2-(5-Vinylisochroman-1-yl)-4,5-dihydro-1H-imidazole] | – | 0.81 | – | 7.40 | –
28 | CCc1cccc2c1CCOC2C1=NCCN1 (stereo not drawn) [Example 8] | – | 0.77 | – | 7.40 | –
29 | Oc1cccc2c1CCOC2C1=NCCN1 (stereo not drawn) [Example 9, 1-(4,5-Dihydro-1H-imidazol-2-yl)isochroman-5-ol] | – | 0.73 | 200 nM | – | –
30 | OCc1cccc2c1CCOC2C1=NCCN1 (stereo not drawn) [Example 10, (1-(4,5-Dihydro-1H-imidazol-2-yl)isochroman-5-yl)methanol] | – | 0.90 | – | 7.70 | –
31 | CC1(C2=NCCN2)OCCc2c(Br)cccc21 (stereo not drawn) [Example 11, 2-(5-Bromo-1-methylisochroman-1-yl)-4,5-dihydro-1H-imidazole] | – | 0.83 | – | 7.00 | –
32 | CC[C@@H]1Cc2c(Cl)cccc2C(C2=NCCN2)O1 (stereo partly drawn) [Example 12, 2-((3R)-5-chloro-3-ethylisochroman-1-yl)-4,5-dihydro-1H-imidazole] | – | 0.94 | 1580 nM | – | –
